# Source: patent US4835172A, “Novel benzamides, intermediates and process for the preparation and therapeutic use thereof” (Societe D'Etudes Scientifiques et Industrielles de …, priority 1985, dated 1989)
# Like-named read-outs stand apart in the source and are kept apart here.
# Experiments:
# solubility in water = type: physicochemical
# prolactin = prolactin content in serum after subcutaneous administration in the male rat; type: in vivo
# Protocol: The blood samples had been taken 10 and 30 minutes after administration of the compound, whereas the same dose of a reference antidopaminergic (Sulpiride) studied under the same conditions, multiplies the amount of basic prolactinaemia by a factor of about 10.
# D2 receptors = biological target: T1, D2 receptors (Rattus norvegicus, UniProt P61169); test: displacement of 3H-spiperone, ligand of D2 receptors, in vitro on rat striatum preparations; type: binding; conditions: read-out: inhibiting concentration (50), I.C. 50, relative to 3H-spiperone
# T1 construct: in vitro tests on rat striatum preparations; from tissue; host or cells: rat striatum preparations
# T1 sequence (P61169 whole entry): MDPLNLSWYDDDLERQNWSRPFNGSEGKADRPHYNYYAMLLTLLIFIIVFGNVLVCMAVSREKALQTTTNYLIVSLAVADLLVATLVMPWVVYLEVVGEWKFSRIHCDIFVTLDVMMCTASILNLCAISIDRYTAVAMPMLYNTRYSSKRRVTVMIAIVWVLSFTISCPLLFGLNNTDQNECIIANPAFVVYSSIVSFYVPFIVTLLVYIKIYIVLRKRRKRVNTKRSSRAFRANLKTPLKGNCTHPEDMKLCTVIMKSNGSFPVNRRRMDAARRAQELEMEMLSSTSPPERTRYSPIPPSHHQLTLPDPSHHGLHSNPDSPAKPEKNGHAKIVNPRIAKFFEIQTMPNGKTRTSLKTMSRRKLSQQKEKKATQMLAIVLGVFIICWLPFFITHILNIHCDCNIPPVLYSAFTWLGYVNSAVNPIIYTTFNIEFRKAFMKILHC
# From the text: (§1) These tests which consisted of studying the displacement of specific ligands of dopamine receptors by compounds of the invention. The compound in Example I was found, for instance, to have an inhibiting concentration (50), I.C.
# acute toxicity in mice = conditions: mouse, in vivo
# Protocol: In the course of this pharmacological research a toxicological study of the most preferred compound was carried out.
# D1 receptors = test: displacement of 3H-piflutixol, ligand of D1 receptors, in vitro on rat striatum preparations; type: binding
# From the text: as §1
# [1] = tested on: reserpine-induced motor depression and ptosis; test: reserpine model of behavioural depression; type: in vivo, mice or rats
# Protocol: In view of this activating property of the compounds of the invention, animal models of behavioural depression were used to investigate a possible antidepressive effect. For example, mice pre-treated with reserpine (5 mg/kg) intraperitoneally 18 hours before the test, or rats receiving reserpine in the nucleus accumbens 1 μg/24 h) were tested.
compound,measurement,setting,value
"C=CCOc1cc(NC2=NCCN2)c(Cl)cc1C(=O)NCCN(CC)CC [XXXIII, N-(DIETHYLAMINO ETHYL) 2-ALLYLOXY 4-[(1-H 4,5 DIHYDRO 2-IMIDAZOLYL) AMINO] 5-CHLORO BENZAMIDE]",solubility,"solubility in water; hydrochloride prepared for immediate use, read-out: soluble in water, hydrochloride",200 mg/mL
same,solubility,"solubility in water; the product (base), read-out: insoluble in water",10 mg/mL
"COc1cc(NC2=NCCO2)c(Cl)cc1C(=O)NCC1CCCN1CC1CC1 (stereo not shown) [XL, N-(1-CYCLOPROPYLMETHYL 2-PYRROLIDINYLMETHYL) 2-METHOXY 4-[(4,5-DIHYDRO 2-OXAZOLYL) AMINO] 5-CHLORO BENZAMIDE]",solubility,"solubility in water; monohydrochloride prepared for immediate use, read-out: soluble in water, monohydrochloride",~320 mg/mL
"CCN1CCCC1CNC(=O)c1cc(S(N)(=O)=O)ccc1OC (stereo not shown) [Sulpiride, reference compound]",factor by which the amount of basic prolactinaemia is multiplied,prolactin; same dose (1 mg/kg) and same conditions,about 10
"CCN(CC)CCNC(=O)c1cc(Cl)c(NC2=NCCN2)cc1OC [Example I, N-[(DIETHYL AMINO) ETHYL] 2-METHOXY 4-[(1-H 4,5-DIHYDRO 2-IMIDAZOLYL) AMINO] 5-CHLORO BENZAMIDE]",IC50,D2 receptors,> 100 µM
same,LD50,"acute toxicity in mice; ip, read-out: LD 50 i.p.",37.7 to 40.8 mg/kg
same,LD50,"acute toxicity in mice; iv, read-out: LD 50 i.v.",12.8 to 14.4 mg/kg
same,LD50,"acute toxicity in mice; po, per os, read-out: LD 50 per os",165 to 180 mg/kg
same,LD50,"acute toxicity in mice; sc, read-out: LD 50 s.c.",52 to 54 mg/kg
same,increase in prolactin content in serum,"prolactin; 1 mg/kg s.c., eight rats, 10 and 30 minutes after administration",no increase in prolactin content
same,displacement of 3H-piflutixol,D1 receptors,no displacement
same,activity compared with imipramine against reserpine,[1]; 0.1 mg/kg s.c. versus imipramine 30 mg/kg i.p.,as active at that dose as 30 mg/kg of imipramine
same,effect on reserpine-induced motor depression and ptosis,"[1]; 0.1 mg/kg s.c., reserpine 5 mg/kg i.p. (mice) or in nucleus accumbens 1 μg/24 h (rats)",counteracts motor depression and ptosis
